≈ marks a conversion by molar mass, not a printed value.
Key:
Format in all cases: functional
[1] = test system: Escherichia coli; assay: Antibacterial activity against Escherichia coli by two-fold dilution method
[2] = test system: Candida albicans; assay: […] activity against Candida albicans by two-fold dilution method; conditions: for MIC: Candida albicans
[3] = test system: Cutibacterium acnes; assay: Antibacterial activity against Propionibacterium acnes by two-fold dilution method
[4] = test system: Staphylococcus aureus; assay: Antibacterial activity against Staphylococcus aureus by two-fold dilution method; conditions: for MIC: Staphylococcus aureus
[5] = test system: Pseudomonas aeruginosa; assay: Antibacterial activity against Pseudomonas aeruginosa by two-fold dilution method

COC(=O)CCC[C@@H]1[C@H]2CCCN3CCC[C@@H](CN1C(=O)c1cc4ccc(Cl)cc4n1Cc1ccc(Br)cc1)[C@@H]23
MIC [1]: 0.762 µg/mL (≈ 1.22 µM) | -logMIC [2]: -1.14 | MIC [2]: 13.7 µg/mL (≈ 21.9 µM) | MIC [3]: 0.121 µg/mL (≈ 0.193 µM) | -logMIC [4]: 0.06 | MIC [4]: 1.15 µg/mL (≈ 1.83 µM) | MIC [5]: 0.467 µg/mL (≈ 0.745 µM)

COC(=O)CCC[C@@H]1[C@H]2CCCN3CCC[C@@H](CN1C(=O)c1cc4ccc(Cl)cc4n1Cc1ccc(F)c(F)c1)[C@@H]23
MIC [1]: 0.483 µg/mL (≈ 0.827 µM) | -logMIC [2]: -0.98 | MIC [2]: 9.55 µg/mL (≈ 16.3 µM) | MIC [3]: 0.12 µg/mL (≈ 0.205 µM) | -logMIC [4]: 0.37 | MIC [4]: 0.427 µg/mL (≈ 0.731 µM) | MIC [5]: 0.5 µg/mL (≈ 0.856 µM)

COC(=O)CCC[C@@H]1[C@H]2CCCN3CCC[C@@H](CN1C(=O)c1cc4ccc(Cl)cc4n1Cc1ccccc1[N+](=O)[O-])[C@@H]23
MIC [1]: 0.694 µg/mL (≈ 1.17 µM) | -logMIC [2]: -1.05 | MIC [2]: 11.1 µg/mL (≈ 18.8 µM) | MIC [3]: 2.86 µg/mL (≈ 4.82 µM) | -logMIC [4]: 0.876 | MIC [4]: 0.133 µg/mL (≈ 0.224 µM) | MIC [5]: 0.852 µg/mL (≈ 1.44 µM)

COC(=O)CCC[C@@H]1[C@H]2CCCN3CCC[C@@H](CN1C(=O)c1cc4ccccc4[nH]1)[C@@H]23
MIC [1]: 2.97 µg/mL (≈ 7.01 µM) | -logMIC [2]: -1.16 | MIC [2]: 14.3 µg/mL (≈ 33.7 µM) | MIC [3]: 1.23 µg/mL (≈ 2.91 µM) | -logMIC [4]: -0.991 | MIC [4]: 9.79 µg/mL (≈ 23.1 µM) | MIC [5]: 1.08 µg/mL (≈ 2.56 µM)

COC(=O)CCC[C@@H]1[C@H]2CCCN3CCC[C@@H](CN1C(=O)c1cc4ccc(Cl)cc4n1Cc1ccc(F)cc1)[C@@H]23
MIC [1]: 0.618 µg/mL (≈ 1.09 µM) | -logMIC [2]: -0.77 | MIC [2]: 5.89 µg/mL (≈ 10.4 µM) | MIC [3]: 0.199 µg/mL (≈ 0.352 µM) | -logMIC [4]: 0.035 | MIC [4]: 0.923 µg/mL (≈ 1.63 µM) | MIC [5]: 0.806 µg/mL (≈ 1.42 µM)

COC(=O)CCC[C@@H]1[C@H]2CCCN3CCC[C@@H](CN1C(=O)c1cc4ccc(Cl)cc4n1Cc1ccc(C(C)(C)C)cc1)[C@@H]23
MIC [1]: 1.22 µg/mL (≈ 2.02 µM) | -logMIC [2]: -1.26 | MIC [2]: 18.1 µg/mL (≈ 29.9 µM) | MIC [3]: 1.33 µg/mL (≈ 2.19 µM) | -logMIC [4]: 1.071 | MIC [4]: 0.085 µg/mL (≈ 0.141 µM) | MIC [5]: 0.654 µg/mL (≈ 1.08 µM)

COC(=O)CCC[C@@H]1[C@H]2CCCN3CCC[C@@H](CN1C(=O)c1cc4ccc(Cl)cc4n1Cc1ccc(-c4ccccc4)cc1)[C@@H]23
MIC [1]: 1.16 µg/mL (≈ 1.86 µM) | -logMIC [2]: -1.37 | MIC [2]: 23.2 µg/mL (≈ 37.2 µM) | MIC [3]: 0.373 µg/mL (≈ 0.598 µM) | -logMIC [4]: 1.276 | MIC [4]: 0.053 µg/mL (≈ 0.0849 µM) | MIC [5]: 0.55 µg/mL (≈ 0.881 µM)

COC(=O)CCC[C@@H]1[C@H]2CCCN3CCC[C@@H](CN1C(=O)c1cc4ccc(Cl)cc4n1Cc1ccccc1C)[C@@H]23
MIC [1]: 1.1 µg/mL (≈ 1.97 µM) | -logMIC [2]: -1.29 | MIC [2]: 19.6 µg/mL (≈ 34.8 µM) | MIC [3]: 0.271 µg/mL (≈ 0.482 µM) | -logMIC [4]: 1.201 | MIC [4]: 0.063 µg/mL (≈ 0.112 µM) | MIC [5]: 0.72 µg/mL (≈ 1.28 µM)

COC(=O)CCC[C@@H]1[C@H]2CCCN3CCC[C@@H](CN1C(=O)c1cc4ccc(Cl)cc4n1Cc1ccc([N+](=O)[O-])cc1)[C@@H]23
MIC [1]: 0.523 µg/mL (≈ 0.882 µM) | -logMIC [2]: -0.846 | MIC [2]: 7.01 µg/mL (≈ 11.8 µM) | MIC [3]: 0.053 µg/mL (≈ 0.0894 µM) | -logMIC [4]: 0.745 | MIC [4]: 0.18 µg/mL (≈ 0.303 µM) | MIC [5]: 0.28 µg/mL (≈ 0.472 µM)

COC(=O)CCC[C@@H]1[C@H]2CCCN3CCC[C@@H](CN1C(=O)c1cc4ccc(Cl)cc4n1Cc1ccc(OC)cc1)[C@@H]23
MIC [1]: 0.775 µg/mL (≈ 1.34 µM) | -logMIC [2]: -0.905 | MIC [2]: 8.04 µg/mL (≈ 13.9 µM) | MIC [3]: 0.404 µg/mL (≈ 0.699 µM) | -logMIC [4]: 0.451 | MIC [4]: 0.354 µg/mL (≈ 0.612 µM) | MIC [5]: 0.627 µg/mL (≈ 1.08 µM)

COC(=O)CCC[C@@H]1[C@H]2CCCN3CCC[C@@H](CN1C(=O)c1cc4ccc(Cl)cc4n1Cc1ccc4ccccc4c1)[C@@H]23
MIC [1]: 0.892 µg/mL (≈ 1.49 µM) | -logMIC [2]: -1.09 | MIC [2]: 12.2 µg/mL (≈ 20.4 µM) | MIC [3]: 0.175 µg/mL (≈ 0.293 µM) | -logMIC [4]: 1.187 | MIC [4]: 0.065 µg/mL (≈ 0.109 µM) | MIC [5]: 0.42 µg/mL (≈ 0.702 µM)

COC(=O)CCC[C@@H]1[C@H]2CCCN3CCC[C@@H](CN1C(=O)c1cc4ccc(Cl)cc4[nH]1)[C@@H]23
MIC [1]: 2.55 µg/mL (≈ 5.57 µM) | -logMIC [2]: -0.819 | MIC [2]: 6.59 µg/mL (≈ 14.4 µM) | MIC [3]: 0.636 µg/mL (≈ 1.39 µM) | -logMIC [4]: 0.207 | MIC [4]: 1.61 µg/mL (≈ 3.52 µM) | MIC [5]: 0.661 µg/mL (≈ 1.44 µM)

COC(=O)CCC[C@@H]1[C@H]2CCCN3CCC[C@@H](CN1C(=O)c1cc4ccc(Cl)cc4n1Cc1c(Cl)cccc1Cl)[C@@H]23
MIC [1]: 0.82 µg/mL (≈ 1.33 µM) | -logMIC [2]: -0.833 | MIC [2]: 6.81 µg/mL (≈ 11 µM) | MIC [3]: 0.203 µg/mL (≈ 0.329 µM) | -logMIC [4]: 0.785 | MIC [4]: 0.164 µg/mL (≈ 0.266 µM) | MIC [5]: 0.207 µg/mL (≈ 0.335 µM)

COC(=O)CCC[C@@H]1[C@H]2CCCN3CCC[C@@H](CN1C(=O)c1cc4ccc(Cl)cc4n1Cc1ccc(Cl)cc1)[C@@H]23
MIC [1]: 0.812 µg/mL (≈ 1.39 µM) | -logMIC [2]: -1.13 | MIC [2]: 13.5 µg/mL (≈ 23.1 µM) | MIC [3]: 0.246 µg/mL (≈ 0.422 µM) | -logMIC [4]: 0.73 | MIC [4]: 0.186 µg/mL (≈ 0.319 µM) | MIC [5]: 0.633 µg/mL (≈ 1.09 µM)

COC(=O)CCC[C@@H]1[C@H]2CCCN3CCC[C@@H](CN1C(=O)c1cc4ccc(Cl)cc4n1Cc1ccc(C(F)(F)F)cc1)[C@@H]23
MIC [1]: 0.379 µg/mL (≈ 0.615 µM) | -logMIC [2]: -0.448 | MIC [2]: 2.81 µg/mL (≈ 4.55 µM) | MIC [3]: 0.03 µg/mL (≈ 0.0487 µM) | -logMIC [4]: 1.678 | MIC [4]: 0.021 µg/mL (≈ 0.0341 µM) | MIC [5]: 0.092 µg/mL (≈ 0.149 µM)

COC(=O)CCC[C@@H]1[C@H]2CCCN3CCC[C@@H](CN1C(=O)c1cc4ccc(Cl)cc4n1Cc1ccc(C)cc1)[C@@H]23
MIC [1]: 1.09 µg/mL (≈ 1.93 µM) | -logMIC [2]: -0.907 | MIC [2]: 8.08 µg/mL (≈ 14.4 µM) | MIC [3]: 0.508 µg/mL (≈ 0.904 µM) | -logMIC [4]: 0.221 | MIC [4]: 1.66 µg/mL (≈ 2.96 µM) | MIC [5]: 0.773 µg/mL (≈ 1.38 µM)

COC(=O)CCC[C@@H]1[C@H]2CCCN3CCC[C@@H](CN1C(=O)c1cc4ccc(Cl)cc4n1Cc1cccc([N+](=O)[O-])c1)[C@@H]23
MIC [1]: 0.954 µg/mL (≈ 1.61 µM) | -logMIC [2]: -1.07 | MIC [2]: 11.7 µg/mL (≈ 19.7 µM) | MIC [3]: 0.248 µg/mL (≈ 0.418 µM) | -logMIC [4]: 1.509 | MIC [4]: 0.031 µg/mL (≈ 0.0523 µM) | MIC [5]: 0.387 µg/mL (≈ 0.652 µM)

COC(=O)CCC[C@@H]1[C@H]2CCCN3CCC[C@@H](CN1C(=O)c1cc4ccc(Cl)cc4n1Cc1ccccc1)[C@@H]23
MIC [1]: 1.23 µg/mL (≈ 2.25 µM) | -logMIC [2]: -0.951 | MIC [2]: 8.94 µg/mL (≈ 16.3 µM) | MIC [3]: 0.478 µg/mL (≈ 0.872 µM) | -logMIC [4]: 0.283 | MIC [4]: 0.521 µg/mL (≈ 0.951 µM) | MIC [5]: 0.844 µg/mL (≈ 1.54 µM)

COC(=O)CCC[C@@H]1[C@H]2CCCN3CCC[C@@H](CN1C(=O)c1cc4ccc(Cl)cc4n1Cc1cccc4ccccc14)[C@@H]23
MIC [1]: 0.649 µg/mL (≈ 1.08 µM) | -logMIC [2]: -1.08 | MIC [2]: 12.1 µg/mL (≈ 20.2 µM) | MIC [3]: 0.14 µg/mL (≈ 0.234 µM) | -logMIC [4]: 0.519 | MIC [4]: 0.303 µg/mL (≈ 0.507 µM) | MIC [5]: 0.534 µg/mL (≈ 0.893 µM)

COC(=O)CCC[C@@H]1[C@H]2CCCN3CCC[C@@H](CN1C(=O)c1cc4ccc(Cl)cc4n1Cc1cccc(C)c1)[C@@H]23
MIC [1]: 1.3 µg/mL (≈ 2.31 µM) | -logMIC [2]: -1.06 | MIC [2]: 11.6 µg/mL (≈ 20.6 µM) | MIC [3]: 0.305 µg/mL (≈ 0.543 µM) | -logMIC [4]: 0.567 | MIC [4]: 0.271 µg/mL (≈ 0.482 µM) | MIC [5]: 0.536 µg/mL (≈ 0.953 µM)

CC(C)(O/N=C(\C(=O)N[C@@H]1C(=O)N2C(C(=O)[O-])=C(C[n+]3ccccc3)CS[C@H]12)c1csc(N)n1)C(=O)O [CEFTAZIDIME]
MIC [5]: 0.042 µg/mL (≈ 0.0768 µM)

C[C@H]1c2cccc(O)c2C(=O)C2=C(O)[C@]3(O)C(=O)C(C(N)=O)=C(O)[C@@H](N(C)C)[C@@H]3[C@@H](O)[C@@H]21.Cl [DOXYCYCLINE HYDROCHLORIDE]
MIC [3]: 0.023 µg/mL

OC(Cn1cncn1)(Cn1cncn1)c1ccc(F)cc1F [FLUCONAZOLE]
MIC [2]: 4.85 µg/mL (≈ 15.8 µM)

NC[C@H]1O[C@H](O[C@H]2[C@H](O)[C@@H](O[C@H]3O[C@H](CO)[C@@H](O)[C@H](N)[C@H]3O)[C@H](N)C[C@@H]2N)[C@H](O)[C@@H](O)[C@@H]1O.O=S(=O)(O)O [KANAMYCIN SULFATE]
MIC [1]: 0.052 µg/mL

CC1(C)S[C@@H]2[C@H](NC(=O)Cc3ccccc3)C(=O)N2[C@H]1C(=O)[O-].[Na+] [PENICILLIN G SODIUM]
MIC [4]: 0.037 µg/mL

— ChEMBL document CHEMBL5579805, “Synthesis, antibacterial activity, and 3D-QASR studies of matrine-indole derivatives as potential antibiotics” (2024)
